Results as given in patent US5814627A, “3, 5-disubstituted and 3, 4, 5-trisubstituted 2-isoxazolines and isoxazoles, process for their preparation and their use as pharmaceuticals” (Hoechst Aktienegesellschaft, priority 1994, dated 1998).
Where a name gives a salt, the structure may show the parent alone. Read-outs that look alike come from different tables or passages of the source.

Columns and labels:
[1] = tested on: tumor cell line 20-10-5S (hybridoma cell line); assay: Test 8: Inhibition of tumor cell proliferation; assay type: cell-based; details: 48 h + 16 h tritiated thymidine incorporation; 20-10-5S cells
Experimental: The tumor cell line 20-10-5S (hybridoma cell line, supplied by ATCC (American Type Culture Collection)), which produces an antibody against mouse T cells) was used for determining the antiproliferative property of test substances. The cells were cultured, at 37° C. and 5% C2, under serum-free conditions in CG medium (cell-growth medium=Iscove-ATL (+albumin+transferrin+lipids); from Vitromex, Vilshofen). Only cells which were in the logarithmic phase of growth were used for the test mixture. The test substances were pipetted in various concentrations (from 1 to 50 μM), together with 4×10^3 20-10-5S cells, into round-bottomedmicrotiter plates (total volume with medium, 200 μl). After an incubation time of 48 h (37° C. and 5% CO2), 25 μl of tritiated thymidine (=0.25 μCi/test mixture, specific activity, 23 Ci/mM) were added to the plates. During the subsequent 16 h, the radioactively labeled thymidine was incorporated into the DNA of the growing cells. The samples were filtered off with suction on glass fiber filters and the incorporated radioactivity was measured using a β counter (Beta Plate System 1205 from Wallac).

[2] = tested on: cyclooxygenase-dependent thrombocyte aggregation; assay: Test 5: Cyclooxygenase-dependent thrombocyte aggregation; assay type: cell-based, human; details: arachidonic acid as inducer
Experimental: TEST 5. Cyclooxygenase-dependent thrombocyte aggregation
Platelet-rich plasma (PRP): to inhibit coagulation, human blood was treated with 1/10 of its volume of 3.8% sodium citrate solution. Centrifugation then takes place at 105×g for 20 minutes and the supernatant (PRP) is removed. 200 μl of PRP were preincubated, at 37° C. for 10 minutes, together with 30 μl of test substance in a PAP4 aggregometer (BioData). The test substance was dissolved in organic solvent and diluted 1:30 with buffer (50 mM TisHCl, pH 8.0; 90 mM NaCl). Aggregation is triggered with 20 μl of inducer. During the aggregation, stirring takes place at 800 rpm. Arachidonic acid, 5 mg/ml, was used as the inducer.
The values in the table show the concentration of the test substance which was employed in μM and, besides this, the residual activity measured in percent based on the control, which was set to be 100%. The interleukin is additionally indicated in test 4.

adjuvant/arthritis model = assay: Test 6: antiarthritic effect in the adjuvant/arthritis model; assay type: in vivo, rat (Wistar-Lewis); details: Rattus norvegicus, po, 408 h, read-out: Test 6 Paw volume (% inhibition)
[3] = tested on: polymorphonuclear leucocytes (PMNL); assay: Test 1: Release of proteolytic activity from human PMNL; assay type: cell-based; details: Homo sapiens, PMNL, read-out: Test 1 residual activity (release of proteolytic activity), percent of control
Experimental: Isolation of polymorphonuclear leucocytes (PMNL) from human peripheral blood for carrying out tests 1 and 2 10 ml of human blood were diluted with 10 ml of HBSS (Serva) and underlaid with 15 ml of Lymphoprep (Dr. Molter GmbH, Heidelberg). […] A white ring, composed of mononuclear cells, is located between these two phases. The lowermost phase is composed of erythrocytes which are covered with a white layer of PMNL. The uppermost phase, and also the Lymphoprep and the white ring, were carefully removed using a syringe. The remaining sediment was carefully resuspended in 15 ml of 3% dextran in PM16 (mw: 485,000, Sigma, Deisenhofen). The suspension was then left to stand at room temperature for one hour. During this time, the erythrocytes sedimented while the PMNL remained in the supernatant. The supernatant was removed, diluted with an approximately equal volume of PM16, and centrifuged for 15 minutes at 400×g. Should the PMNL sediment be heavily contaminated with erythrocytes, it is necessary to carry out a hypotonic lysis. To do this, the sediment was resuspended in 750 μl of water. After exactly 15 seconds, the suspension was diluted with approximately 7 ml of PM16 and centrifuged for 10 minutes at 400×g. If necessary, this lysis was repeated once more. Otherwise, the PMNL sediment was resuspended in a suitable medium. 250 μl of PMNL (5·10^6 cells/ml of PBS containing 7.5 mM glucose) were incubated at 37° C. for 20 minutes with 1 μl of test substance. 1 μl of cytochalasin B (5 μg/ml of test mixture) was then added and the mixture was incubated at 37° C. for a further 5 minutes. Following the addition of 1 μl of […] necrosis factor alpha (TNF; 30 ng/ml of test mixture), the incubation was continued for 5 minutes. The release was started using 1 μl of fMLP (10 nmol/l of test mixture). After 60 minutes at 37° C., the reaction was terminated by cooling the samples down to 0° C. The samples were then centrifuged, and the supernatant was removed and frozen down. Cytochalasin B and fMLP were dissolved in DMSO and TNF was diluted with buffer. 50 μl of the supernatant were mixed with 175 μl of buffer (100 mM HEPES, pH 7.5; 500 mM NaCl) in a 96-well microtiter plate. Following the addition of 25 μl of substrate (methoxysuccinyl-[…]-nitroanilide), the extinction of each well was measured at 405 nm after 0, 5, 10, 15, 30 and 60 minutes. […] The interleukin is additionally indicated in test 4.

[4] = Homo sapiens, 100 μM, read-out: Test 5 residual activity (cyclooxygenase-dependent thrombocyte aggregation), percent of control
[5] = 50 mg/kg orally, daily for 17 days, rat
[6] = Homo sapiens, read-out: Test 5 residual activity (cyclooxygenase-dependent thrombocyte aggregation), percent of control

Compound `CC(OC(=O)[C@@H](N)Cc1ccc(O)cc1)C1CC(c2cc(C(C)(C)C)c(O)c(C(C)(C)C)c2)=NO1` (mixture of isomers) [Example 88, L-Tyrosyl 1-(3-(3,5-di-tert-butyl-4-hydroxyphenyl)-2-isoxazolin-5-yl)ethyl ester, rac. 5,5'-erythro isomer mixture] has an IC50 [1] of 10 µM.

In the case of `CC(C)(C)c1cc(-c2cc(C(C)(C)OCC(=O)O)on2)cc(C(C)(C)C)c1O` [Example 34, (1-(3-(4-Hydroxy-3,5-di-tert-butylphenyl)isoxazol-5-yl)-1-methylethoxy)acetic acid], the activity at 100 µM [2, 4] is reported as 98%.

For `CC(C)(OCC1CC(c2cc(C(C)(C)C)c(O)c(C(C)(C)C)c2)=NO1)C(=O)O` (stereo not drawn) [Example 3, 2-(3-(4-Hydroxy-3,5-di-tert-butylphenyl)-2-isoxazolin-5-ylmethoxy)methylpropionic acid], the IC50 [1] was 10 µM and the activity at 100 µM [2, 4] was 98%.

Compound `CC(C)(C)c1cc(C2=NOC(C(C)(C)O)C2)cc(C(C)(C)C)c1O` (stereo not drawn) [Example 69] has an IC50 [1] of 5 to 10 µM and an inhibition in vivo at 50 mg/kg (adjuvant/arthritis model; [5]) of 83%.

With `CC(C)(C)c1cc(C2=NOC(COC(=O)NCC(=O)O)C2)cc(C(C)(C)C)c1O` (stereo not drawn) [Example 4, N-(3-(4-Hydroxy-3,5-di-tert-butylphenyl)-2-isoxazolin-5-ylmethoxycarbonyl)glycine] the IC50 [1] was 30 µM.

In the case of `CC(C)(C)c1cc(C2=NO[C@H]([C@H]3CO3)C2)cc(C(C)(C)C)c1O` (relative stereo) [Example 16], the IC50 [1] is reported as 30 µM.

For `CN(O)C(=O)C(C)(C)OCc1cc(-c2cc(C(C)(C)C)c(O)c(C(C)(C)C)c2)no1` [Example 37, N-Methylhydroxamoyl-2-((3-(4-hydroxy-3,5-di-tert-butylphenyl)isoxazol-5-ylmethoxy)-2-methyl propionate], the IC50 [1] was < 5 µM.

For `CC(C)(C)c1cc(C2=NOC3(CC3)C2)cc(C(C)(C)C)c1O` [Example 12], the IC50 [1] was 10 µM and the inhibition in vivo at 50 mg/kg (adjuvant/arthritis model; [5]) was 82%.

Work on `CC(=O)O[C@@H](C(=O)O)[C@@H](OC(C)=O)C(=O)NCc1cc(-c2cc(C(C)(C)C)c(O)c(C(C)(C)C)c2)no1` [Example 82, Di-O-acetyl-L-tartaric acid-N-(3-(4-hydroxy-3,5-di-tert-butylphenyl)isoxazol-5-yl)methylamide] yielded an activity at 100 µM [2, 4] of 93%.

`C=CCC(O)CC1CC(c2cc(C(C)(C)C)c(O)c(C(C)(C)C)c2)=NO1` (stereo not drawn) [Example 80] showed an IC50 [1] of 5 to 10 µM and an activity at 50 µM [2, 6] of 97%.

For `CC(C)(C)c1cc(-c2cc(CNC(=O)[C@@H](N)Cc3ccccc3)on2)cc(C(C)(C)C)c1O` [Example 55, L-Phenylalanyl-N-(3-(4-hydroxy-3,5-di-tert-butylphenyl)-isoxazol-5-ylmethyl)amide hydrochloride], the IC50 [1] was < 5 µM and the inhibition in vivo at 50 mg/kg (adjuvant/arthritis model) was 47%.

In the case of `CC(C)(C)c1cc(-c2cc(C(C)(C)O)on2)cc(C(C)(C)C)c1O` [Example 29], the IC50 [1] is reported as < 5 µM.

In the case of `CCOC(=O)CNC(=O)OCc1cc(-c2cc(C(C)(C)C)c(O)c(C(C)(C)C)c2)no1` [Example 39, N-(3-(4-Hydroxy-3,5-di-tert-butylphenyl)isoxazol-5-ylmethoxycarbonyl)glycine ethyl ester], the IC50 [1] is reported as 30 µM and the activity at 100 µM [2, 4] is reported as 98%.

Compound `CC(C)(C)c1cc(-c2cc(CNC(=O)[C@H](O)[C@@H](O)C(=O)O)on2)cc(C(C)(C)C)c1O` [Example 83] has an inhibition in vivo at 50 mg/kg (adjuvant/arthritis model; [5]) of 39%.

`COC(=O)CCc1cc(-c2cc(C(C)(C)C)c(O)c(C(C)(C)C)c2)no1` [Example 44] was tested, and the IC50 [1] was 5 to 10 µM and the activity at 10 µM ([2]; Homo sapiens, 10 μM, read-out: Test 5 residual activity (cyclooxygenase-dependent thrombocyte aggregation), percent of control) was 99%.

For `CC(C)(C)c1cc(C2=NO[C@H]([C@H](O)CO)C2)cc(C(C)(C)C)c1O` (relative stereo) [Example 89, 3-(3,5-Di-tert-butyl-4-hydroxyphenyl)-5-(1,2-dihydroxyethyl)-2-isoxazoline,rac. erythro isomer], the IC50 [1] was 20 µM and the inhibition in vivo at 50 mg/kg (adjuvant/arthritis model; [5]) was 36%.

With `CCOP(=O)(/C=C/c1cc(-c2cc(C(C)(C)C)c(O)c(C(C)(C)C)c2)no1)OCC` [Example 57, Diethyl 2-(3-(4-hydroxy-3,5-di-tert-butylphenyl)isoxazol-5-yl)vinylphosphonate] the IC50 [1] was < 5 µM and the activity at 100 µM [2, 4] was 99%.

`CC(C)(C)c1cc(C2=NOC(C(N)=O)C2)cc(C(C)(C)C)c1O` (stereo not drawn) [Example 11] was tested, and the IC50 [1] was < 5 µM.

`CC(=O)CC(=O)O[C@H](C)[C@@H]1CC(c2cc(C(C)(C)C)c(O)c(C(C)(C)C)c2)=NO1` (relative stereo) [Example 84, 1-(3-(4-Hydroxy-3,5-di-tert-butylphenyl)-2-isoxazolin-5-yl)ethyl 3-oxobutyrate] gave an inhibition in vivo at 25 mg/kg (adjuvant/arthritis model; 25 mg/kg orally, daily for 17 days, rat) of 49%.

`CC(C)(C)c1cc(-c2cc(CCCOC(=O)NCC(=O)O)on2)cc(C(C)(C)C)c1O` [Example 42, N-(3-(4-Hydroxy-3,5-di-tert-butylphenyl)isoxazol-5-ylpropoxycarbonyl)glycine] was tested, and the IC50 [1] was 5 to 10 µM.

`C=CCC(O)CC1CC(c2cc(C(C)(C)C)c(O)c(C(C)(C)C)c2)=NO1` (stereo not drawn) [Example 79] was tested, and the IC50 [1] was 5 to 10 µM and the activity at 100 µM [2, 4] was 96%.

`C[C@@H](OP(=O)(Oc1ccccc1)Oc1ccccc1)[C@@H]1CC(c2cc(C(C)(C)C)c(O)c(C(C)(C)C)c2)=NO1` (relative stereo) [Example 85, Diphenyl 1-(3-(4-hydroxy-3,5-di-tert-butylphenyl)-2-isoxazolin-5-yl)ethyl phosphate] was tested, and the IC50 [1] was < 5 µM and the “Test 5 residual activity (cyclooxygenase-dependent thrombocyte aggregation), percent of control” value ([2]; 100 μM) was 94%.

`CCOC(=O)COC(C)(C)c1cc(-c2cc(C(C)(C)C)c(O)c(C(C)(C)C)c2)no1` [Example 33, Ethyl (1-(3-(4-hydroxy-3,5-di-tert-butylphenyl)isoxazol-5-yl)-1-methylethoxy)acetate] was tested, and the IC50 [1] was < 5 µM.

`CC(C)(C)c1cc(-c2cc(CCC(=O)O)on2)cc(C(C)(C)C)c1O` [Example 45, 3-(4-Hydroxy-3,5-di-tert-butylphenyl)isoxazol-5-ylpropionic acid] showed an IC50 [1] of 5 to 10 µM and an activity at 100 µM [2, 4] of 98%.

In the case of `CC(=O)O[C@@H](C)[C@@H]1CC(c2cc(C(C)(C)C)c(O)c(C(C)(C)C)c2)=NO1` (relative stereo) [Example 22, 1-(3-(4-Hydroxy-3,5-di-tert-butylphenyl)-2-isoxazolin-5-yl)ethyl acetate], the inhibition in vivo at 50 mg/kg (adjuvant/arthritis model; [5]) is reported as 74%.

With `CC(O)CC(O)CC1CC(c2cc(C(C)(C)C)c(O)c(C(C)(C)C)c2)=NO1` (stereo not drawn) [Example 78] the IC50 [1] was 5 to 10 µM and the activity at 50 µM [2, 6] was 94%.

`CC(C)(C)c1cc(-c2noc(CO)c2CO)cc(C(C)(C)C)c1O` [Example 32] gave an activity at 1 µM ([3]; 1 μM) of 84%, an activity at 10 µM ([3]; 10 μM) of 72% and an activity at 100 µM ([3]; 100 μM) of 34%.

`CC(C)(C)c1cc(C2=NO[C@H]([C@@H]3CO3)C2)cc(C(C)(C)C)c1O` (relative stereo) [Example 17] gave an IC50 [1] of 8 to 15 µM.

Compound `CC(C)(C)c1cc(-c2cc(/C=C/P(=O)(O)O)on2)cc(C(C)(C)C)c1O` [Example 58, 2-(3-(4-Hydroxy-3,5-di-tert-butylphenyl)isoxazol-5-yl)vinylphosphonic acid] has an activity at 100 µM [2, 4] of 99%.

In the case of `CCC(C)(O)c1cc(-c2cc(C(C)(C)C)c(O)c(C(C)(C)C)c2)no1` (stereo not drawn) [Example 31], the activity at 100 µM [2, 4] is reported as 100%.
